This is an account of results in ChEMBL document CHEMBL3272025, “Conformation-activity studies of oxytocin. Effects of structural modifications at corner positions of the beta-turns on the uterotonic activity” (J Med Chem, 1977).

Molecules are shown by their SMILES. Bridge positions count the residues as written; N and C are the ends. Peptide text beside a SMILES is read from it.

Data set [1] concerns the target T1, Oxytocin receptor (Rattus norvegicus) (UniProt P70536).
T1 sequence (whole entry): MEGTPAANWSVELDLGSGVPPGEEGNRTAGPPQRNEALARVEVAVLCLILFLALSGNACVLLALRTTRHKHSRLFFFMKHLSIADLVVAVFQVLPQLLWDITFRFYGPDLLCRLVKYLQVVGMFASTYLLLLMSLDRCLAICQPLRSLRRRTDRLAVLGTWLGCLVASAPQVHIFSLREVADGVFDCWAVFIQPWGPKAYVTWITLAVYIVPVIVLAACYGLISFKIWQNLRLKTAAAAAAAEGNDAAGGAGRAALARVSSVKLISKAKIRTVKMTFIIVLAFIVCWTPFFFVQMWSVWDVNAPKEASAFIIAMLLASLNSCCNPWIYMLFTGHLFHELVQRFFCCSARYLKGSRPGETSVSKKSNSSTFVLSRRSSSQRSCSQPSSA
Put plainly: Agonist activity at oxytocin receptor in virgin rat uterine horns assessed as uterotonic activity at.

Data set [2] concerns Rattus norvegicus. Description: Antidiuretic activity in anesthetized rat. Type of data set: functional, Urine.
Data set [3] has as its system Rattus norvegicus. Put plainly: Pressor activity in anesthetized rat. Type of data set: functional.
Data set [4] is described as follows: Retardation factor of the compound using BuOH-C6H6-HOAc-1.5% aqueous pyridine at ratio of 10:15:12:18 as solvent system by partition chromatography. It counts as physicochemical. To be noted: buffer.
The target in data set [5] is T1, Oxytocin receptor (Rattus norvegicus). Description: Agonist activity at oxytocin receptor in virgin rat uterine horns assessed as uterotonic activity at relative to synthetic oxytocin.
Data set [6] is described as follows: Retardation factor of the compound using BuOH-pyridine-HOAc-H2O at ratio of 15:10:3:6 as solvent system by thin layer chromatography. It counts as physicochemical.
Data set [7] in a line: Retardation factor of the compound using BuOH-HOAc-H2O at ratio of 4:1:1 as solvent system by thin layer chromatography. It counts as physicochemical.
For data set [8], the system named is Gallus gallus. Put plainly: Vasodepressor activity in conscious chicken. It counts as functional.
The nature of data set [9]: Retardation factor of the compound using BuOH-pyridine-H2O at ratio of 20:10:11 as solvent system by thin layer chromatography. It counts as physicochemical.
A short description of data set [10]: Retardation factor of the compound using BuOH-C6H6-HOAc-1.5% aqueous pyridine at ratio of 5:5:4:6 as solvent system by partition chromatography. Type of data set: physicochemical. Conditions: buffer.
Data set [11] concerns Gallus gallus. Put plainly: Inhibition of vasodepressor activity in conscious chicken. It counts as functional, organism-based. To be noted: read-out: pA2 (converted).

Take `CSCC[C@H](NC(=O)[C@@H]1CCCN1C(=O)[C@@H]1CSSC[C@H](N)C(=O)N[C@@H](Cc2ccc(O)cc2)C(=O)N[C@@H](Cc2ccccc2)C(=O)N[C@@H](CC(C)C)C(=O)N[C@@H](CC(N)=O)C(=O)N1)C(=O)NCC(N)=O` (H-CYFLNCPMG-NH2; disulfide 1-6): the Activity in data set [1] was determined as 0.62 U/mg; in [2], 0.33 U/mg; in [3], 0.92 U/mg; in [5], 66%; in data set [8], 1.05 U/mg. For the same compound, the Rf came to 0.17 in data set [4], 0.64 in data set [6] and 0.38 in data set [7].

Regarding `CC[C@H](C)[C@@H]1NC(=O)[C@H](Cc2ccc(O)cc2)NC(=O)[C@@H](N)CSSC[C@@H](C(=O)N2CCC[C@H]2C(=O)N[C@@H](CC(C)C)C(=O)NCC(N)=O)NC(=O)[C@H](CC(N)=O)NC(=O)[C@H](Cc2ccccc2)NC1=O` (H-CYIFNCPLG-NH2; disulfide 1-6), the Activity was 0.75 U/mg in [1] and 75% in data set [5]. In addition, the Rf is on record as 0.61 in data set [9], 0.26 in data set [4] and 0.38 in data set [7].

As to `CC(C)C[C@H](NC(=O)[C@@H]1CCCN1C(=O)[C@@H]1CSSC[C@H](N)C(=O)N[C@@H](Cc2ccc(O)cc2)C(=O)N[C@@H](Cc2ccccc2)C(=O)N[C@@H](CCC(N)=O)C(=O)N[C@@H](CC(N)=O)C(=O)N1)C(=O)NCC(N)=O` (H-CYFQNCPLG-NH2; disulfide 1-6), the Activity in [1] was 39 U/mg; in data set [5], 90%.

Regarding `CSCC[C@H](NC(=O)[C@@H]1CCCN1C(=O)[C@@H]1CSSC[C@H](N)C(=O)N[C@@H](Cc2ccc(O)cc2)C(=O)N[C@@H](Cc2ccccc2)C(=O)N[C@@H](Cc2ccccc2)C(=O)N[C@@H](CC(N)=O)C(=O)N1)C(=O)NCC(N)=O` (H-CYFFNCPMG-NH2; disulfide 1-6), the Activity is 0.43 U/mg in [2] and 54% in data set [5]. The Rf worked out at 0.19 in data set [4], 0.49 in [10] and 0.38 in [7]. The Kb in [11] is 513 nM.

For `CC[C@H](C)[C@@H]1NC(=O)[C@H](Cc2ccc(O)cc2)NC(=O)[C@@H](N)CSSC[C@@H](C(=O)N2CCC[C@H]2C(=O)N[C@@H](CC(C)C)C(=O)NCC(N)=O)NC(=O)[C@H](CC(N)=O)NC(=O)[C@H](CC(C)C)NC1=O` (H-CYILNCPLG-NH2; disulfide 1-6), the Activity in [1] came out at 13 U/mg; in data set [5], 81%.
